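Assay format: 96-well plates, 48-hour exposure. Abbreviation: GI50, concentration required for 50% inhibition of growth. Definition used: TGI = concentration required for complete inhibition of growth.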
How the values were obtained:
Experiment in all cases: inhibition of tumour cell growth, NCI panel, 48 h
SK-MEL-2 melanoma = tested on: SK-MEL-2 melanoma
HOP-92 NSCLC = tested on: HOP-92 NSCLC
SN12C renal = tested on: SN12C renal
HCT-116 colon = tested on: HCT-116 colon
SW-620 colon = tested on: SW-620 colon
MOLT-4 leukemia = tested on: MOLT-4 leukemia
U251 CNS = tested on: U251 CNS
UACC-62 melanoma = tested on: UACC-62 melanoma
SK-MEL-28 melanoma = tested on: SK-MEL-28 melanoma
HS 578T breast = tested on: HS 578T breast
SR leukemia = tested on: SR leukemia
SNB-75 CNS = tested on: SNB-75 CNS
T-47D breast = tested on: T-47D breast
PC-3 prostate = tested on: PC-3 prostate
OVCAR-3 ovarian = tested on: OVCAR-3 ovarian
HCC-2998 colon = tested on: HCC-2998 colon
NCI-H226 lung = tested on: NCI-H226 lung
HCT-15 colon = tested on: HCT-15 colon
MALME-3M melanoma = tested on: MALME-3M melanoma
MCF7 breast = tested on: MCF7 breast
LOX IMVI melanoma = tested on: LOX IMVI melanoma
EKVX NSCLC = tested on: EKVX NSCLC
KM12 colon = tested on: KM12 colon
A549 NSCLC = tested on: A549 NSCLC
HOP-62 NSCLC = tested on: HOP-62 NSCLC
NCI-H460 lung = tested on: NCI-H460 lung
K-562 leukemia = tested on: K-562 leukemia
OVCAR-5 ovarian = tested on: OVCAR-5 ovarian
OVCAR-4 ovarian = tested on: OVCAR-4 ovarian
RXF 393 renal = tested on: RXF 393 renal
COLO 205 colon = tested on: COLO 205 colon
SNB-19 CNS = tested on: SNB-19 CNS
UACC-257 melanoma = tested on: UACC-257 melanoma
A498 renal = tested on: A498 renal
CCRF-CEM leukemia = tested on: CCRF-CEM leukemia
ACHN renal = tested on: ACHN renal
NCI-H23 lung = tested on: NCI-H23 lung
UO-31 renal = tested on: UO-31 renal
M14 melanoma = tested on: M14 melanoma
NCI-H522 lung = tested on: NCI-H522 lung
786-0 renal = tested on: 786-0 renal
IGROV1 ovarian = tested on: IGROV1 ovarian
SK-MEL-5 melanoma = tested on: SK-MEL-5 melanoma
MDA-MB-435 = tested on: MDA-MB-435
BT-549 breast = tested on: BT-549 breast
SK-OV-3 ovarian = tested on: SK-OV-3 ovarian
NCI/ADR-RES ovarian = tested on: NCI/ADR-RES ovarian
DU-145 prostate = tested on: DU-145 prostate
SF-268 CNS = tested on: SF-268 CNS
HL-60(TB) leukemia = tested on: HL-60(TB) leukemia
CAKI-1 renal = tested on: CAKI-1 renal
MDA-MB-231 breast = tested on: MDA-MB-231 breast
SF-539 CNS = tested on: SF-539 CNS
TK-10 renal = tested on: TK-10 renal
OVCAR-8 ovarian = tested on: OVCAR-8 ovarian
RPMI-8226 leukemia = tested on: RPMI-8226 leukemia
SF-295 CNS = tested on: SF-295 CNS
HT29 colon = tested on: HT29 colon

In the case of `O=C(/C=C/c1ccc(Cl)cc1)c1ccc(Nc2nc(Nc3ccc(F)cc3)nc(Nc3ccc(F)cc3)n2)cc1`, the GI50 (SK-MEL-2 melanoma) is reported as 40.8 µM, the TGI (SK-MEL-2 melanoma) is reported as > 100 µM and the GI50 (HOP-92 NSCLC) is reported as 26.6 µM. The TGI (HOP-92 NSCLC) was > 100 µM, the GI50 (SN12C renal) was > 100 µM and the TGI (SN12C renal) was > 100 µM. For the same compound, the GI50 (HCT-116 colon) was 12.2 µM, the TGI (HCT-116 colon) was 25.5 µM and the GI50 (SW-620 colon) was 29.2 µM. The TGI (SW-620 colon) was 76.5 µM, the GI50 (MOLT-4 leukemia) was 24.5 µM and the TGI (MOLT-4 leukemia) was 98.7 µM. The GI50 (U251 CNS) was 19.8 µM, the TGI (U251 CNS) was 41.6 µM and the GI50 (UACC-62 melanoma) was > 100 µM. For the same compound, the TGI (UACC-62 melanoma) was > 100 µM, the GI50 (SK-MEL-28 melanoma) was 24.6 µM and the TGI (SK-MEL-28 melanoma) was 61.7 µM. For the same compound, the GI50 (HS 578T breast) was 52.3 µM, the TGI (HS 578T breast) was > 100 µM and the GI50 (SR leukemia) was 22.3 µM. The TGI (SR leukemia) was 74.3 µM, the GI50 (SNB-75 CNS) was 67.8 µM and the TGI (SNB-75 CNS) was > 100 µM. The GI50 (T-47D breast) was 19.2 µM, the TGI (T-47D breast) was > 100 µM and the GI50 (PC-3 prostate) was 41.1 µM. The TGI (PC-3 prostate) was > 100 µM, the GI50 (OVCAR-3 ovarian) was 32.2 µM and the TGI (OVCAR-3 ovarian) was 89.8 µM. The GI50 (HCC-2998 colon) was 17.7 µM, the TGI (HCC-2998 colon) was 41.2 µM and the GI50 (NCI-H226 lung) was 24.5 µM. For the same compound, the TGI (NCI-H226 lung) was 53.8 µM, the GI50 (HCT-15 colon) was 53.7 µM and the TGI (HCT-15 colon) was > 100 µM. For the same compound, the GI50 (MALME-3M melanoma) was > 100 µM, the TGI (MALME-3M melanoma) was > 100 µM and the GI50 (MCF7 breast) was 9.45 µM. The TGI (MCF7 breast) was > 100 µM, the GI50 (LOX IMVI melanoma) was 27.4 µM and the TGI (LOX IMVI melanoma) was 70.2 µM. The GI50 (EKVX NSCLC) was 95.7 µM, the TGI (EKVX NSCLC) was > 100 µM and the GI50 (KM12 colon) was 25.7 µM. The TGI (KM12 colon) was > 100 µM, the GI50 (A549 NSCLC) was 49.9 µM and the TGI (A549 NSCLC) was > 100 µM. For the same compound, the GI50 (HOP-62 NSCLC) was > 100 µM, the TGI (HOP-62 NSCLC) was > 100 µM and the GI50 (NCI-H460 lung) was 38.9 µM. The TGI (NCI-H460 lung) was > 100 µM, the GI50 (K-562 leukemia) was 53.1 µM and the TGI (K-562 leukemia) was > 100 µM. The GI50 (OVCAR-5 ovarian) was > 100 µM, the TGI (OVCAR-5 ovarian) was > 100 µM and the GI50 (OVCAR-4 ovarian) was 65.7 µM. The TGI (OVCAR-4 ovarian) was > 100 µM, the GI50 (RXF 393 renal) was 21.2 µM and the TGI (RXF 393 renal) was 46.1 µM. The GI50 (COLO 205 colon) was 16.7 µM, the TGI (COLO 205 colon) was 45.4 µM and the GI50 (SNB-19 CNS) was 94.1 µM. For the same compound, the TGI (SNB-19 CNS) was > 100 µM, the GI50 (UACC-257 melanoma) was > 100 µM and the TGI (UACC-257 melanoma) was > 100 µM. The GI50 (A498 renal) was 34.6 µM, the TGI (A498 renal) was 98.5 µM and the GI50 (CCRF-CEM leukemia) was 31.9 µM. For the same compound, the TGI (CCRF-CEM leukemia) was > 100 µM, the GI50 (ACHN renal) was 72 µM and the TGI (ACHN renal) was > 100 µM. For the same compound, the GI50 (NCI-H23 lung) was 41 µM, the TGI (NCI-H23 lung) was > 100 µM and the GI50 (UO-31 renal) was 19.4 µM. The TGI (UO-31 renal) was > 100 µM, the GI50 (M14 melanoma) was 20.7 µM and the TGI (M14 melanoma) was 42 µM. The GI50 (NCI-H522 lung) was 35.6 µM, the TGI (NCI-H522 lung) was > 100 µM and the GI50 (786-0 renal) was 23.1 µM. For the same compound, the TGI (786-0 renal) was 56.3 µM, the GI50 (IGROV1 ovarian) was 13.7 µM and the TGI (IGROV1 ovarian) was 30.9 µM. The GI50 (SK-MEL-5 melanoma) was 46.9 µM, the TGI (SK-MEL-5 melanoma) was > 100 µM and the GI50 (MDA-MB-435) was 23 µM. For the same compound, the TGI (MDA-MB-435) was 50 µM, the GI50 (BT-549 breast) was 19 µM and the TGI (BT-549 breast) was 36.9 µM. For the same compound, the GI50 (SK-OV-3 ovarian) was 43.7 µM, the TGI (SK-OV-3 ovarian) was > 100 µM and the GI50 (NCI/ADR-RES ovarian) was 43.9 µM. For the same compound, the TGI (NCI/ADR-RES ovarian) was > 100 µM, the GI50 (DU-145 prostate) was > 100 µM and the TGI (DU-145 prostate) was > 100 µM. The GI50 (SF-268 CNS) was 56.1 µM, the TGI (SF-268 CNS) was > 100 µM and the GI50 (HL-60(TB) leukemia) was 39 µM. The TGI (HL-60(TB) leukemia) was > 100 µM, the GI50 (CAKI-1 renal) was 80.4 µM and the TGI (CAKI-1 renal) was > 100 µM. For the same compound, the GI50 (MDA-MB-231 breast) was > 100 µM, the TGI (MDA-MB-231 breast) was > 100 µM and the GI50 (SF-539 CNS) was 24 µM. The TGI (SF-539 CNS) was 51.9 µM, the GI50 (TK-10 renal) was > 100 µM and the TGI (TK-10 renal) was > 100 µM. For the same compound, the GI50 (OVCAR-8 ovarian) was 74.4 µM, the TGI (OVCAR-8 ovarian) was > 100 µM and the GI50 (RPMI-8226 leukemia) was 4.99 µM. The TGI (RPMI-8226 leukemia) was 26.3 µM, the GI50 (SF-295 CNS) was 22.6 µM and the TGI (SF-295 CNS) was 58.5 µM. The GI50 (HT29 colon) was 35.1 µM and the TGI (HT29 colon) was > 100 µM.

Reference: PubChem BioAssay (NCI)
